Experimental data reported in paper PMC6604423, “A New Flavanone as a Potent Antioxidant Isolated from Chromolaena odorata L. Leaves” (Evidence-based Complementary and Alternative Medicine : eCAM, 2019).
Like-named read-outs stand apart in the source and are kept apart here.

What was measured:
[1] = DPPH radical scavenging assay; settings: 20 min, room temperature, 517 nm; mean ± SD, triplicate
Method: First, DPPH solution (6 × 10^−5 M) was separated by dissolving 2.37 mg of DPPH in 100 mL of methanol to obtain a working solution. […] Finally, the mixed sample solution was incubated for 20 minutes at room temperature. Then, the absorbance (As) of the reaction mixture was measured by UV-Vis spectrophotometer at 517 nm. The mixed solution between methanol and the working solution was used as blank to give the blank absorbance (Ab). Gallic acid was used as a standard. The inhibitory activity was calculated by (1).

[2] = ABTS radical cation scavenging assay; settings: for ABTS IC50: 4 min, room temperature, 734 nm, mean ± SD, triplicate; for IC50: same result expressed in μM
Method: Free radical scavenging by ABTS radical was based on the method described previously by us. […] Those two solutions were mixed and incubated for 12-16 hours to obtain ABTS radical cation solution which is a dark blue solution. It was added with ± 274 mL of ethanol to give an absorbance of 0.7 ± 0.02 units at 734 nm for making a working solution. 1 mL of working solution was mixed with 10 μL of samples (n-hexane, dichloromethane, ethyl acetate, methanol, and water extracts) at maximum dissolved concentration in DMSO and mixed well. Finally, the mixed sample solution was incubated for four minutes at room temperature; then, the absorbance (As) of the reaction mixture was measured by UV-Vis spectrophotometers at 734 nm. The mixed solution between DMSO and the working solution was used as blank to give the blank absorbance (Ab). Trolox was used as a standard. […] The IC50 value was expressed as a quantity of an extract inhibitory concentration against a half of ABTS radicals.

[3] = biological target: α-glucosidase rat intestine enzyme; experiment: α-Glucosidase inhibitory activity assay (rat intestinal acetone powder, maltose substrate); assay type: biochemical; settings: 10 mM maltose, pH 6.9, 37°C, 10 min, mean ± SD, triplicate
Method: First, rat intestinal acetone powder (1 g) was suspended in 30 mL of normal saline. This suspended solution was sonicated for five minutes at 4°C. After centrifugation (12,000 rpm, 30 minutes, 4°C), the resulting supernatant was used for the assay. Briefly, a mixture of 10 μL samples, 30 μL of 0.1 M phosphate buffer (pH 6.9), 20 μL of 10 mM maltose, 80 μL glucose kit, and 20 μL of enzyme supernatant were incubated in 96-well plates at 37°C for 10 minutes. Acarbose was used as a standard. The absorbance was recorded at 490 nm by microplate reader (Biotek ELx800UV). The inhibitory activity was determined from the formula as follows:(2) Inhibition%=Ablank−Asample/Ablank×100 where Ablank = Aenzyme reaction − Ablank of enzyme reaction and Asample = Asample reaction − Ablank of sample reaction.

[4] = in vitro, C. odorata leaves; cited from earlier work

Row | ABTS IC50 [2] | IC50 [2] | α-Glucosidase inhibition IC50 [3] | SMILES | other results
1 |  |  |  | O=C(O)c1cc(O)c(O)c(O)c1 [Gallic acid, gallic acid] | DPPH IC50 [1]: 1.11 ± 0.42 µg/mL
2 | 7.84 ± 0.45 µg/mL | 31.3 µM |  | Cc1c(C)c2c(c(C)c1O)CCC(C)(C(=O)O)O2 (centres unmarked) [Trolox, 6-hydroxy-2,5,7,8-tetramethylchromen-2-carboxylate acid] | 
3 |  |  | 7.67 ± 1.86 µg/mL | C[C@H]1O[C@H](O[C@H]2[C@H](O)[C@@H](O)[C@@H](O[C@H]3[C@H](O)[C@@H](O)C(O)O[C@@H]3CO)O[C@@H]2CO)[C@H](O)[C@@H](O)[C@@H]1N[C@H]1C=C(CO)[C@@H](O)[C@H](O)[C@H]1O (some centres unmarked) [Acarbose, acarbose] | 
4 |  |  |  | O=C1O[C@H]([C@@H](O)CO)C(O)=C1O [ascorbic acid] | ABTS IC50 [4]: 1000 µg/mL
5 | 7.51 ± 1.57 µg/mL | 23.7 µM | >62.5 µg/mL | COc1cc(O)c2c(c1)OC(c1cc(O)ccc1OC)CC2=O (centres unmarked) [Odoratenin (1), 5,3'-dihydroxy-7,6'-dimethoxyflavanone] | 
